Assay [1] has as its system murine bone marrow-isolated monocytes or bone marrow-derived macrophages. The assay is described as follows: In vitro stimulation of murine monocytes / bone marrow-derived macrophages, cytokine ELISA. In kind it is cell-based. Here is the method: Naïve bone marrow monocytes were isolated from BM cells. Briefly, hind legs were removed from 3 mice, cleaned from surrounding muscles. The femur and tibia bones were trimmed at their extremities, the BM content was flushed out with cold PBS using a 10 ml syringe and a 25G needle and filtered through a 40 μm strainer. Red blood cells (RBC) were lysed with 1× RBC lysis buffer (Biolegend) for 5 min. on ice. CD11b+ monocytes were further purified by positive selection using a cocktail of CD11 b magnetic beads (Miltenyi Biotec, #130-049-601) and magnetizing MS columns (Miltenyi Biote) according to the manufacturer's instructions. Subsequently, monocytes were seeded in F-bottom 96-well plates at 1×10^5 cells per well in RPMI1640 supplemented with 10% heat-inactivated fetal bovine serum, penicillin (100 U/ml), streptomycin (100 μg/ml), L-glutamine (2 mM) […]. Monocytes were activated with 10 μg/ml LPS (Sigma-Aldrich) and subjected to treatment with 6-BT (10/100 μM), LysoPC(20:0) (10/50 μM), MA-GPC (10/50/100 μM), or appropriate vehicle. Cells were kept in a final volume of 200 μl/well for 24 hours, after which supernatant was harvested and stored at −80° C.
Bone marrow-derived macrophages (BMDM) and DC (BMDC) were obtained by differentiating freshly isolated BM cells from femur and tibia bones (as above described) of C57/B16 mice (N=3 per experiment). For BMDM, BM cells were seeded at 3×10^6 cells per 10 cm dish and cultured for 7 days in 12 ml RPMI1640 medium with 20% fetal bovine serum, 30% L-929 cell conditioned media, as source of murine macrophage colony-stimulating factor (M-CSF). For BMDC, BM cells were seeded at 0.5×10^6/ml cells in 25 ml in 10 cm dishes and cultured for 7 days in presence of GM-CSF in 5% FBS-RPMI1640 medium. After differentiation, BMDM/DCs were harvested, counted and seeded at a density of 1×10^5 cells per well in a F-bottom 96-well plate and left to adhere for 20 hours before experiments were performed. Macrophages were activated with 10 μg/ml polyinosinic-polycytidylic acid poly(I.C) (InvivoGen) for 24 hours in presence or not of 6-BT (10/100 μM), LysoPC(20:0) (10/50 μM), or MA-GPC (10/50/100 μM) in a final volume of 200 μl/well. At the end of the assay, supernatant was harvested and stored at −80° C.
Specific ELISAs (R&D Systems) were utilized to measure the concentration of TNFα, IFNβ, and IFNγ in cell supernatant of murine monocytes, macrophages ad T cells, respectively, according to the manufacturer's instructions. The concentration of insulin after 24-hour treatment with metabolites or after GSIS were determined using Rat insulin ELISA (Mercodia) according to the manufacturer's instructions. GSIS was calculated by subtracting the concentration of insulin at 1 mM glucose to the insulin rate at 22 mM glucose.
Here, murine bone marrow-isolated monocytes (Christ A., Western Diet Triggers NLRP3-Dependent Innate Immune Reprogramming. Cell 2018) or bone marrow-derived macrophages (Swanson K V, A noncanonical function of cGAMP in inflammasome priming and activation. JEM 2017) were exposed for 24 hours to the indicated concentrations of 6-BT (10-100 μM) in presence or not of 10 μg/ml LPS, 10 μg/ml P3C or 10 μg/ml poly(I.C).
(In general: In an ELISA, binding on a coated surface is turned into a signal by an enzyme label.)

The subject of the next assay is human monocytes. The assay is described as follows: In vitro stimulation of human monocytes. In kind it is cell-based. The conditions noted are these: LPS stimulation 24 hours, 100 μM (FIG. 10). Here is the method:
The mononuclear cell fraction was isolated from the blood of healthy volunteers (Sanquin Bloodbank, Amsterdam, The Netherlands) by density centrifugation using Lymphoprep™ (Axis-Shield) and isolated using human CD14 magnetic beads and MACS® cell separation columns (Miltenyi Biotec) according to the manufacturer's instructions. Isolated primary human monocytes were counted and seeded at 1>10^6 cells/mL in 24-well plates with 1 ml medium supplemented with 10% fetal bovine serum, 100 U/ml penicillin, 100 μg/ml streptomycin, 2 mM L-glutamine. After seeding, cells were stimulated with 10 ng/ml LPS or 25 mM D-glucose (both Sigma-Aldrich) for 24 hours with/without 100 μM 6-BT. Afterwards, cells were lysed with Tripure isolation reagent (Roche) and stored at −80° C. until RNA isolation.
Total RNA was extracted from Tripure isolation reagent cell lysates. RNA was converted to cDNA by with iScript kit (BioRad). Quantitative polymerase chain reaction (qPCR) was performed using SYBR Green-SensiMix (Bioline) on a CFX384 Touch Real-Time PCR Detection System (BioRad). The delta delta Ct method was used to calculate gene expression as fold-change compared to control (unstimulated conditions).

The text below walks through data of patent US12648928B2, “Intervention strategy for prevention or treatment of diabetes mellitus, autoimmune disease, inflammatory disease or cardiovascular disease” (ACADEMISCH MEDISCH CENTRUM, priority 2020, dated 2026).

`N[C@@H](Cc1c[nH]c2cc(Br)ccc12)C(=O)O` [6-BT, 6-bromotryptophan]: the “secretion of TNFα upon TLR4 engagement” value in assay [1] (10-100 μM, 24 hours, 10 μg/ml LPS, ELISA (FIG. 14)) is reported as “can inhibit the secretion”. Besides, in assay [1] (10-100 μM, 24 hours, 10 μg/ml P3C, ELISA (FIG. 14)), the “secretion of TNFα upon TLR2 engagement” value was “can inhibit the secretion”. The “secretion of IFNbeta upon TLR3 activation” value in assay [1] (10-100 μM, 24 hours, 10 μg/ml poly(I.C), ELISA (FIG. 14)) is “can inhibit the secretion”. The “type 1 IFN secretion” value in assay [1] (PolyI:C for 24 hours, TLR3 stimulation (FIG. 9)) is recorded as “impair type 1 IFN secretion”. Besides, the “anti-inflammatory effects on monocytes” value in assay [1] (monocytes isolated from murine bone marrow, 6-BT vs tryptophan) was “anti-inflammatory effects are specific for the 6-bromotryptophan molecule”. Besides, the “cytokine secretion by monocytes” value in assay [1] (murine monocytes CD11b+ activated with LPS (10 μg/ml) for 24 hours, TLR4 stimulation (FIG. 8)) was “halt cytokine secretion”. In addition, in the assay with human monocytes, the “cytokine production by human monocytes” value is reported as “reduces cytokine production”.
